The values below come from patent publication US10822317B2, “Methods and compositions for wound healing” (QBiotics Limited, priority 2013, dated 2020).

Experiment [1] concerns human peripheral blood monocytes. The experiment in a line: Differentiation of monocytes into macrophages. The format is cell-based. To be noted: 10-fold dilutions; 4 days; adherence and morphology. On the procedure: To determine potential effects of Compound 1 and fifteen other epoxy-tigliane compounds in the array on monocyte differentiation, human peripheral blood mononuclear cells (PBMCs) were isolated by Ficoll-Paque sedimentation of heparinised blood from a human donor, and plated at 100,000 cells/well in RPMI-1640 10% FCS. Duplicate wells were treated with 10-fold dilutions of the compounds and incubated at 37° C. for 4 days. The wells were scored visually for cell attachment and morphology, then washed twice with PBS, stained with sulfurhodamine and the incorporate stain quantitated in an ELISA reader. The plates were then washed with water and stained with 1% crystal violet in methanol for photography and scoring of adherent cell morphology.

Experiment [2] deals with human neonatal fibroblasts. The experiment is described as follows: Scratch closure, human neonatal fibroblasts, Method 3 (IncuCyte). Type of experiment: cell-based. To be noted: 200 ng/mL. On the procedure: The ability of early. passage neonatal foreskin fibroblasts (NFF) cultured in RPMI 1640-10% foetal calf serum to migrate across a scratch wound made in a confluent monolayer following treatment with purified compounds or plant extracts was determined using one or more of the following three methods.
Cells were seeded and treated in 96-well plates as in Method 2 (5 replicate wells per dilution), except that the scratches were made in one action with a tool having 96, 1 mm thick teflon coated pins (Essen Bioscience Woundmaker). The plate was then placed in a 37° C., 5% CO2 humidified atmosphere in an IncuCyte FLR instrument programmed to photograph each well under phase contrast at 3 hr intervals for 42 hours. The software determined the initial scratch boundaries and their rate of closure. Accelerated wound closure was considered to be significant if the initial rate of closure was >10% of the untreated controls.

`CCC(C)C(=O)OC1C(C)C2(O)C(C3OC3(CO)C(O)C3(O)C(=O)C(C)=CC32)C2C(C)(C)C12OC(C)=O` (stereo not drawn) [Compound 52, 12-(2-methylbutanoyl)-13-acetyl-6,7-epoxy-4,5,9,12,13,20-hexahydroxy-1-tigliaen-3-one]: in experiment [1], the “Differentiation endpoint (endpoint concentration in dilution series for induction of macrophage phenotype)” value (“Differentiation endpoint” for short) is 10 ng/mL.
As for `CCCCCC=CC=CC(=O)OC1C(C)C2(O)C(C3OC3(CO)C(O)C3(O)C(=O)C(C)=CC32)C2C(C)(C)C12OC(=O)C(C)CC` (stereo not drawn) [Compound 18, 12-[(2Z,4E)-deca-2,4-dienoyl]-13-(2-methylbutanoyl)-6,7-epoxy-4,5,9,12,13,20-hexahydroxy-1-tigliaen-3-one], the “% closure compared to control” value in experiment [2] is reported as 220%.
On to “12-(3-butenoyl)-13-nonanoyl-6,7-epoxy-4,5,9,12,13,20-hexahydroxy-1-tigliaen-3-one [Compound 22]”, for which the “Differentiation endpoint” value in experiment [1] was determined as 100 ng/mL. Moreover, in experiment [2], the “% closure compared to control” value is listed as 400%.
Taken in the same sequence, the figures for “12-benzoyl-13-(2-methylbutanoyl)-6,7-epoxy-4,5,9,12,13,20-hexahydroxy-1-tigliaen-3-one [Compound 23]” were 1 ng/mL and 130%.
Regarding “12-myristoyl-13-acetyl-6,7-epoxy-4,5,9,12,13,20-hexahydroxy-1-tigliaen-3-one [Compound 50]”, in experiment [1], the “Differentiation endpoint” value is reported as 1 ng/mL.
With `CCCCCC(O)C(O)/C=C/C=C/C(=O)OC1C(C)C2(O)C(C3OC3(CO)C(O)C3(O)C(=O)C(C)=CC32)C2C(C)(C)C12OC(=O)C(C)CC` (stereo not drawn) [Compound 11, 12-[(2E,4E)-6,7-dihydroxydodeca-2,4-dienoyl]-13-(2-methylbutanoyl)-6,7-epoxy-4,5,9,12,13,20-hexahydroxy-1-tigliaen-3-one], in experiment [2], the “% closure compared to control” value is given as 270%.
As to `CCCCCC=CC=CC(=O)OC1C(C)C2(O)C(C3OC3(CO)C(O)C3(O)C(=O)C(C)=CC32)C2C(C)(C)C12OC(=O)C(C)CC` (stereo not drawn) [Compound 24, 12-[(2E,4E)-deca-2,4-dienoyl]-13-(2-methylbutanoyl)-6,7-epoxy-4,5,9,12,13,20-hexahydroxy-1-tigliaen-3-one], the “Differentiation endpoint” value in experiment [1] was determined as 1 ng/mL.
As for “12,13-di-heptanoyl-6,7-epoxy-4,5,9,12,13,20-hexahydroxy-1-tigliaen-3-one [Compound 49]”, in experiment [1], the “Differentiation endpoint” value came out at 1 ng/mL.
For the molecule “12-tigloyl-13-butanoyl-6,7-epoxy-4,5,9,12,13,20-hexahydroxy-1-tigliaen-3-one [Compound 21]”, the “Differentiation endpoint” value in experiment [1] is recorded as 10 ng/mL. Further, the “% closure compared to control” value in experiment [2] was determined as 200%.
Consider `CCCCCC(=O)OC12C(O)C(C)C3(O)C(C4OC4(CO)C(O)C4(O)C(=O)C(C)=CC43)C1C2(C)C` (stereo not drawn) [Compound 53, 13-hexanoyl-6,7-epoxy-4,5,9,12,13,20-hexahydroxy-1-tigliaen-3-one], for which the “Differentiation endpoint” value in experiment [1] was determined as 100 ng/mL.
On to “12,13-di-nonoyl-6,7-epoxy-4,5,9,12,13,20-hexahydroxy-1-tigliaen-3-one [Compound 41]”, for which the “Differentiation endpoint” value in experiment [1] is listed as 0.1 ng/mL.
Consider “12-benzoyl-13-butanoyl-6,7-epoxy-4,5,9,12,13,20-hexahydroxy-1-tigliaen-3-one [Compound 28]”, for which the “% closure compared to control” value in experiment [2] came to 140%.
In the case of `CCCCCC=CC=CC=CC(=O)OC1C(C)C2(O)C(C3OC3(CO)C(O)C3(O)C(=O)C(C)=CC32)C2C(C)(C)C12OC(=O)C(C)CC` (stereo not drawn) [Compound 3, 12-[(2E,4E,6E)-dodeca-2,4,6-trienoyl]-13-(2-methylbutanoyl)-6,7-epoxy-4,5,9,12,13,20-hexahydroxy-1-tigliaen-3-one], the “Differentiation endpoint” value in experiment [1] was found to be 10 ng/mL. Further, the “% closure compared to control” value in experiment [2] was 270%.
On to “12-myristoyl-13-(2-methylbutanoyl)-6,7-epoxy-4,5,9,12,13,20-hexahydroxy-1-tigliaen-3-one [Compound 51]”, for which, in experiment [1], the “Differentiation endpoint” value is given as 1 ng/mL.
